Active and inactive are the calls of the source. The rule behind the calls is not given here.
Columns and labels:
[1] = target: 5'-AMP-activated protein kinase; assay: Activation of AMPK in mouse C2C12 cells incubated for 2 hrs; format: cell-based
HepG2 = assay: Inhibition of mitochondrial function in human HepG2 cells assessed as reduction in ATP production; format: functional, cell-based
[2] = Clearance in rat; format: ADME; conditions: in vivo
[3] = Activation of AMPK in human HepG2 cells incubated for 2 hrs; format: cell-based; conditions: HepG2, 2 h
Cytochrome P450 3A4 [4] = target: T1, Cytochrome P450 3A4 (Homo sapiens, UniProt P08684); assay: Inhibition of CYP3A4 (unknown origin) in presence of NADPH; format: ADME
T1 sequence (P08684 whole entry): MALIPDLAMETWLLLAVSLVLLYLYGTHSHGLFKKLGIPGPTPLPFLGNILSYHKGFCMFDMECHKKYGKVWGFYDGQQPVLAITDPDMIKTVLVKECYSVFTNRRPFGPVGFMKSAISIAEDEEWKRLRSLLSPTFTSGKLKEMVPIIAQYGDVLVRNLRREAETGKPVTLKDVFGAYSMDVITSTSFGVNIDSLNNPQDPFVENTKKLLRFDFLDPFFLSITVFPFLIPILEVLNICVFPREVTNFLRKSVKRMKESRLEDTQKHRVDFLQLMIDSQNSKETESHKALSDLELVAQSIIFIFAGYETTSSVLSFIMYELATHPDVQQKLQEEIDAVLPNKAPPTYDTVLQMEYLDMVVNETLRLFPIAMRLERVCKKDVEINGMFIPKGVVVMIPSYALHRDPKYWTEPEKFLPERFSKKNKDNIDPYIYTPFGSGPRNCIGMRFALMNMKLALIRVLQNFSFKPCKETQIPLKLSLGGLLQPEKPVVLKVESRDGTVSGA

Cytochrome P450 3A4 [5] = target: T1, Cytochrome P450 3A4; assay: Inhibition of CYP3A4 (unknown origin); format: ADME
hERG (KCNH2) = hERG (KCNH2) (Homo sapiens, UniProt Q12809); assay: Inhibition of hERG at 10 uM relative to control; format: toxicity
Chain of hERG (KCNH2) (Q12809 whole entry): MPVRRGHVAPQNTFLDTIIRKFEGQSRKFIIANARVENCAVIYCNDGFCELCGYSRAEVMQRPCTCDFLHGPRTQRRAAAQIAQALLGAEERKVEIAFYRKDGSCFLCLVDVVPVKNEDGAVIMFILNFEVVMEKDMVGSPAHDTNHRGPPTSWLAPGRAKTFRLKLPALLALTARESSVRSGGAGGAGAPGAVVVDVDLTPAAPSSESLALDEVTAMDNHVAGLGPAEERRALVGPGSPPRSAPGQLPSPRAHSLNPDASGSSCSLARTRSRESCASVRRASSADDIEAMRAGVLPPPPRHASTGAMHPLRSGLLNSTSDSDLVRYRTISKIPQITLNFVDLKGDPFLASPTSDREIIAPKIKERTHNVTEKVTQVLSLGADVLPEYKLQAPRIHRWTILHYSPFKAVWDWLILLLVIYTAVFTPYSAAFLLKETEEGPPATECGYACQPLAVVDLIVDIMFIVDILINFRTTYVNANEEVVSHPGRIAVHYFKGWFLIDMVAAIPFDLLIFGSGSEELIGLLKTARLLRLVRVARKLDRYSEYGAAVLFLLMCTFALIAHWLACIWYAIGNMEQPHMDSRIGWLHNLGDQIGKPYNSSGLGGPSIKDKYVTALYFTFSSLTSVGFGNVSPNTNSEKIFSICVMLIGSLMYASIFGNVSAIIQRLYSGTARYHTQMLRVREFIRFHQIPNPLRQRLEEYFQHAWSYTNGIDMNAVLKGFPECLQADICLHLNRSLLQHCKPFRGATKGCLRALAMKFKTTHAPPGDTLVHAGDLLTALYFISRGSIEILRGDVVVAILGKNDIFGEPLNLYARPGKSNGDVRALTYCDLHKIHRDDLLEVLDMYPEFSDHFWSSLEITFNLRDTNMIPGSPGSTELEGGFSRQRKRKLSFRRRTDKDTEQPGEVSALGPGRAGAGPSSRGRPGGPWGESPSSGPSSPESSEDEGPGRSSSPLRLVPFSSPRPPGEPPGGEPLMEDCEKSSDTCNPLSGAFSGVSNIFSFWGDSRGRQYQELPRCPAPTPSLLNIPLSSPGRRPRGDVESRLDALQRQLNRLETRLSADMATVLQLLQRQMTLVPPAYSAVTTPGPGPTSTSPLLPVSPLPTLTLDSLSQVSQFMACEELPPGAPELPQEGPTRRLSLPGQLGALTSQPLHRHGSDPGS

[6] = Microsomal stability in human liver microsome assessed as half life; format: ADME, microsomes; conditions: for half-life: liver microsomes
[7] = Dissociation constant, pKa of compound; format: physicochemical
[8] = Microsomal stability in rat liver microsome assessed as half life; format: ADME; conditions: liver microsomes
[9] = target: Voltage-gated inwardly rectifying potassium channel KCNH2 (Homo sapiens, UniProt Q12809); assay: Inhibition of hERG; format: toxicity
Chain of Voltage-gated inwardly rectifying potassium channel KCNH2 (Q12809 whole entry): as above

[10] = AUC in rat at 5 mg/kg, po measured upto 10 hrs; format: ADME, organism-based; design: time < 10 hrs, dose 5 mg/kg, route po; conditions: in vivo
A549 = assay: Cytotoxicity against human A549 cells assessed as reduction in cell growth; format: functional, cell-based
Mus musculus [11] = assay: Antidiabetic activity against po dosed db/db mouse model of type 2 diabetes assessed as improvement in glucose handling administered for 15 days and measured on day 13 by OGTT test; format: functional, organism-based; conditions: dose 10-15 mg/kg, time 13.0 day
Mus musculus [12] = assay: Antidiabetic activity against po dosed db/db mouse model of type 2 diabetes assessed as reduction in blood glucose level administered for 15 days by OGTT test; format: functional, organism-based; conditions: dose 10-15 mg/kg, time 15.0 day
[13] = Drug concentration in C57BL/6J mouse plasma at 10 mg/kg, po measured at 30 mins; format: ADME, organism-based
Mus musculus [14] = assay: In vivo activation of AMPK in C57BL/6J mouse assessed as increase in AMPK phosphorylation in liver at 10 mg/kg, po measured for 30 mins by Western blot analysis; format: functional, organism-based
[15] = Volume of distribution at steady state in rat at 5 mg/kg, po or 1 mg/kg, iv measured upto 10 hrs; format: ADME, organism-based; conditions: in vivo
NCI-H1299 = assay: Cytotoxicity against human NCI-H1299 cells assessed as reduction in cell growth; format: functional, cell-based
Mus musculus [16] = assay: Antidiabetic activity against po dosed db/db mouse model of type 2 diabetes assessed as reduction in insulin level administered for 15 days by OGTT test; format: functional, organism-based; conditions: dose 10-15 mg/kg, time 15.0 day
Mus musculus [17] = assay: In vivo activation of AMPK in C57BL/6J mouse assessed as increase ACC substrate level in liver at 10 mg/kg, po measured for 30 mins by Western blot analysis; format: functional, organism-based
Mus musculus [18] = assay: Antidiabetic activity against db/db mouse model of type 2 diabetes assessed as reduction in blood glucose AUC at 15 mg/kg, po administered for 15 days and measured on day 13 by OGTT test; format: functional, organism-based; conditions: time 13.0 day
[19] = Oral bioavailability in rat at 5 mg/kg measured upto 10 hrs; format: ADME, organism-based; conditions: in vivo
[20] = Half life in rat at 5 mg/kg, po or 1 mg/kg, iv measured upto 10 hrs; format: ADME, organism-based; conditions: in vivo

Row | SMILES | EC50 [1] | IC50 (HepG2) | clearance [2] | EC50 [3] | IC50 (Cytochrome P450 3A4 [4]) | IC50 (Cytochrome P450 3A4 [5]) | half-life [6] | half-life [8] | inhibition at 10 µM (hERG (KCNH2)) | further results
1 | N#Cc1ccc(CN2CC[C@H](NC(=O)c3ccc(C(=O)N4CCC(C(=O)c5ccc(N6CCOCC6)cc5)CC4)nc3)[C@@H](F)C2)cc1 | 217 nM | 2690 nM |  | 70 nM |  |  | 2.63 h | 1.22 h |  | 
2 | COc1ccc(C(=O)C2CCN(C(=O)c3ccc(C(=O)N(C)C4CCN(Cc5ccc(C#N)cc5)CC4)cn3)CC2)cc1 |  | 28 nM | 74 mL/min/kg | 21 nM |  |  |  |  |  | 
3 | COc1ccc(C(=O)C2CCN(C(=O)c3cc(C(F)(F)F)c(C(=O)NC4CCN(Cc5ccc(C#N)cc5)CC4)cn3)CC2)cc1 | 28 nM | 456 nM | 35 mL/min/kg | 10 nM | 2800 nM | > 10000 nM | 1.48 h | 0.733 h |  | 
4 | N#Cc1ccc(CN2CC[C@H](NC(=O)c3ccc(C(=O)N4CCC(C(=O)c5ccc(-n6cccn6)cc5)CC4)nc3)[C@@H](F)C2)cc1 | 87 nM | 887 nM | 19 mL/min/kg | 29 nM |  |  |  | 1.75 h | 98.4% | Stability ([6]; microsomes): Stable
5 | COc1ccc(CN2CCC(NC(=O)c3cnc(C(=O)N4CCC(C(=O)c5ccc(OC)cc5)CC4)cc3C)CC2)cc1 | 84 nM | 3370 nM | 40 mL/min/kg | 25 nM |  |  | 4.72 h | 0.917 h | 62.5% | 
6 | COc1ccc(C(=O)C2CCN(C(=O)c3cc(F)c(C(=O)NC4CCN(Cc5ccc(C#N)cc5)CC4)cn3)CC2)cc1 | 9 nM | 31 nM |  | 1 nM |  |  |  |  |  | 
7 | COc1ccc(C(=O)C2CCN(C(=O)c3cc(C)c(C(=O)NC4CCN(Cc5ccc(OC)c(F)c5)CC4)cn3)CC2)cc1 | 27 nM | 976 nM | 33 mL/min/kg | 14 nM |  |  | 1.12 h | 0.9 h | 58.4% | 
8 | COc1ccc(C(=O)C2CCN(C(=O)c3cc(C)c(C(=O)NC4CCN(Cc5ccc(C#N)cc5)CC4)cn3)CC2)cc1 | 110 nM | 1460 nM | 38 mL/min/kg | 22 nM | > 10000 nM | > 10000 nM | 1.72 h | 0.7 h | 59.8% | 
9 | COCCN(C(=O)c1ccc(C(=O)N2CCC(C(=O)c3ccc(OC)cc3)CC2)nc1)C1CCN(Cc2ccc(C#N)cc2)CC1 | 654 nM | 1470 nM |  | 78 nM |  |  |  |  | 26.5% | 

The next lines start with results.

Row | EC50 [1] | IC50 (HepG2) | clearance [2] | EC50 [3] | IC50 (Cytochrome P450 3A4 [4]) | IC50 (Cytochrome P450 3A4 [5]) | half-life [6] | half-life [8] | SMILES | inhibition at 10 µM (hERG (KCNH2)) | further results
10 | 598 nM | 390 nM | 40 mL/min/kg | 32 nM |  |  |  |  | COc1ccc(C(=O)C2CCN(C(=O)c3ccc(C(=O)NC4CCN(Cc5ccc(C#N)cc5)CC4(C)C)cn3)CC2)cc1 (centres undefined) |  | 
11 | 236 nM | 983 nM | 145 mL/min/kg | 65 nM |  |  |  |  | COc1ccc(C(=O)C2CCN(C(=O)c3ccc(C(=O)N[C@H]4CCN(Cc5ccc(C#N)cc5)C[C@@H]4C)cn3)CC2)cc1 |  | 
12 | 50 nM | 256 nM |  | 28 nM | > 10000 nM | > 10000 nM | 1.23 h | 2.48 h | COc1ccc(C(=O)C2CCN(C(=O)c3ccc(C(=O)NC4CCN(Cc5ccc(C#N)cc5)CC4(F)F)cn3)CC2)cc1 (centres undefined) | 65% | pKa [7]: 2.5
13 | 82 nM | 941 nM |  | 22 nM | 900 nM | 10000 nM | 0.383 h | 0.15 h | COc1ccc(C(=O)C2CCN(C(=O)c3ccc(C(=O)N[C@@H]4CCN(Cc5ccc(C#N)cc5)C[C@@H]4C)cn3)CC2)cc1 | 46.9% | 
14 |  |  |  | 464 nM |  |  |  |  | COc1ccc(C(=O)C2CCN(C(=O)c3ccc(C(=O)N[C@H]4CCN(Cc5ccc(C#N)cc5)[C@H](C(F)(F)F)C4)cn3)CC2)cc1 |  | 
15 | 137 nM | 2820 nM | 150 mL/min/kg | 31 nM | > 10000 nM | > 10000 nM |  |  | COc1ccc(C(=O)C2CCN(C(=O)c3ccc(C(=O)NC4CCN(Cc5ccc(C#N)cc5)CC4)cn3)CC2)cc1 |  | IC50 [9]: 4700 nM; pKa [7]: 7.4
16 | 161 nM | 1170 nM | 17 mL/min/kg | 62 nM | > 10000 nM | > 10000 nM | 1.9 h | 1.47 h | COc1ccc(C(=O)C2CCN(C(=O)c3ccc(C(=O)N[C@H]4CCN(Cc5ccc(C#N)cc5)C[C@@H]4F)cn3)CC2)cc1 (relative stereo) | 69.2% | AUC at 10 h [10]: 2350 ng·h/mL; IC50 (A549): > 20000 nM; Activity (Mus musculus [11]): Dose-Dependent Effect; Activity (Mus musculus [12]): Dose-Dependent Effect; concentration at 0.5 h [13]: 638 ng/mL; Activity (Mus musculus [14]): Active; Vdss [15]: 2.2 L/kg; IC50 (NCI-H1299): > 20000 nM; Activity (Mus musculus [16]): Dose-Dependent Effect; Activity (Mus musculus [17]): Active; Activity (Mus musculus [18]): Active; bioavailability [19]: 55%; pKa [7]: 4.9; half-life [20]: 3.1 h
17 | 143 nM | 466 nM | 62 mL/min/kg | 17 nM |  |  |  |  | COc1ccc(C(=O)C2CCN(C(=O)c3ccc(C(=O)N[C@@H]4CCN(Cc5ccc(C#N)cc5)C[C@@H]4C(F)(F)F)cn3)CC2)cc1 |  | 
18 | 193 nM | 800 nM | 33 mL/min/kg | 47 nM | > 10000 nM | > 10000 nM | 8.23 h | 4.95 h | COc1ccc(C(=O)C2CCN(C(=O)c3ccc(C(=O)N[C@@H]4CCN(Cc5ccc(C#N)cc5)C[C@@H]4F)cn3)CC2)cc1 | 67.4% | pKa [7]: 4.9

From ChEMBL document CHEMBL5375990, “Optimization of Pharmacokinetic and In Vitro Safety Profile of a Series of Pyridine Diamide Indirect AMPK Activators” (J Med Chem, 2023)
